Test results as given in patent publication US5936097A, “4,9-ethano-benzo(F)isoindole derivatives as farnesyl transferase inhibitors” (Rhone-Poulenc Rorer, S.A., priority 1995, dated 1999).
Where a name gives a salt, the structure may show the parent alone.

Each molecule was assayed against T1, human farnesyl transferase (Homo sapiens, UniProt P49354+P49356) (assay: inhibition of farnesyl transferase ((3H) farnesyl transfer from (3H) FPP to p21 H-ras)). Details: not given.
T1 construct: human farnesyl transferase purified from THP1 cell cultures; endogenous in cells; host or cells: THP1 cell cultures (enzyme purified from the cells)
Type: biochemical
Protocol: Farnesyl transferase activity is determined by the amount of (^3 H) farnesyl transferred from (^3 H) farnesylpyrophosphate [(^3 H) FPP] to the p21 H-ras protein. The standard reaction mixture is composed, for a final volume of […], of 50 mM Tris-HCl, 5 mM MgCl2, 5 mM dithiotreitol, 0.2% octyl b-D-glucopyranoside, 200 picomol p21 H-ras, 4.5 picomol (^3 H) FPP (activity 61000 dpm/picomol).
Reaction is initiated by adding approximately 5 ng of human farnesyl transferase purified from THP1 cell cultures. After incubation for 20 minutes at 37° C. in a microtitration plate containing 96 1-cm^3 wells per plate (Titer Plate®, Beckman), the reaction is stopped by adding 0.4 cm^3 of 0.1% SDS in methanol at 0° C. The mixture is then treated with 0.4 cm^3 of 30% trichloroacetic® acid (TCA) in methanol. The plates are left in ice for 1 hour. The precipitated contents are then retained on Filtermat®, Pharmacia), glass® fibre membranes with the filtration unit (Combi Cell Harvester®, Skatron), and rinsed with 6% trichloroacetic acid in distilled water. The membranes are dried in a microwave oven, then impregnated with scintillation medium by melting of Meltilex® (Pharmacia) under hot air, and lastly counted in cpm in a b-Plate counter® (LKB). Each test is repeated 3 times.
The unit of activity is defined as 1 picomole of (^3 H) FPP transferred to p21 H-ras in 20 minutes.
The percentage inhibition values are obtained by comparison of the tests with and without inhibitor after deduction of blanks, the IC50 values being measured on the basis of the inhibitions obtained with 9 different concentrations using Enzfitter® or Grafit® software.

Compared with `CCOP(=O)(C[C@]12CN(C(=O)Cc3ccccc3OC)C[C@H]1[C@@]1(c3ccccc3)CC[C@@H]2c2ccccc21)OCC` (relative stereo) [Example 22, diethyl ester of [(3aRS, 4SR, 9SR, 9aRS)-4,9-ethano-2-(2-methoxyphenyl)acetyl-9-phenyl-2,3,3a,4,9,9a-hexahydro-1H-benzo[f]isoindol-3a-yl]methylphosphonic acid], `O=C(Cc1ccccc1Br)N1C[C@H]2[C@@]3(c4ccccc4)CC[C@H](c4ccccc43)[C@@]2(C(=O)O)C1` (relative stereo) [Example 28, (3aRS, 4SR, 9SR, 9aRS)-4,9-ethano-2-(2-bromophenyl)acetyl-9-phenyl-2,3,3a,4,9,9a-hexahydro-1H-benzo[f]isoindole-3a-carboxylic acid] is 3.3-fold lower in IC50: 10000 nM for the first, 3050 nM for the second.

Going from `COc1ccccc1OC(=O)N1C[C@H]2[C@@]3(c4ccccc4)CC[C@H](c4ccccc43)[C@@]2(C(=O)O)C1` (relative stereo) [Example 27, (3aRS, 4SR, 9SR, 9aRS)-4,9-ethano-2-(2-methoxyphenyl)oxycarbonyl-9-phenyl-1,2,3,3a,9,9a-hexahydro-1H-benzo[f]isoindole-3a-carboxylic acid] to `C=C(C(=O)N1C[C@@H]2[C@]3(c4ccccc4)CC[C@@H](c4ccccc43)[C@]2(C(=O)O)C1)c1ccccc1OC` (relative stereo) [Example 38, (3aRS,4SR,9SR,9aRS)-4,9-ethano-2-[2-(2-methoxyphenyl)prop-2-en-1-oyl]-9-phenyl-2,3,3a,4,9,9a-hexahydro-1H-benzo[f]isoindole-3a-carboxylic acid], the IC50 falls from 5800 nM to 100 nM (58-fold).

`CSc1ccccc1CC(=O)N1C[C@H]2[C@@]3(c4ccccc4)CC[C@H](c4ccccc43)[C@@]2(C(=O)O)C1` (relative stereo) [Example 30] and `COc1ccccc1CC(=O)N1C[C@@H]2[C@]3(c4ccccc4)CC[C@@H](c4ccc(I)cc43)[C@]2(C(=O)O)C1` (relative stereo) [Example 43, (3aRS,4SR,9SR,9aRS)-4,9-ethano-7-iodo-2-(2-methoxyphenyl)acetyl-9-phenyl-2,3,3a,4,9,9a-hexahydro-1H-benzo[f]isoindole-3a-carboxylic acid] are within 1.5-fold of each other in IC50: 600 nM for the first, 700 nM for the second.

Same assay, conditions: human farnesyl transferase purified from THP1 cell cultures; p21 H-ras substrate; 20 minutes at 37° C.; 9 concentrations; read-out: in vitro inhibitory activity IC50

Going from `COc1ccccc1CC(=O)N1C[C@H]2[C@@]3(c4ccccc4)CC[C@H](c4ccccc43)[C@@]2(NC(=O)CCC(=O)O)C1` (relative stereo) [Example 17, (3aRS, 4SR, 9SR, 9aRS)-4,9-ethano-3a-(3-carboxypropionyl)amino-2-(2-methoxyphenyl)acetyl-9-phenyl-2,3,3a,4,9,9a-hexahydro-1H-benzo[f]isoindole] to `COc1ccccc1CC(=O)N1C[C@H]2[C@@]3(c4ccccc4)CC[C@H](c4ccccc43)[C@@]2(CCC(=O)O)C1` (relative stereo) [Example 25, 3-[(3aRS, 4SR, 9SR, 9aRS)-4,9-ethano-2-(2-methoxyphenyl)acetyl-9-phenyl-1,2,3,3a,9,9a-hexahydro-1H-benzo[f]isoindol-3a-yl]propionic acid], the IC50 falls from 4900 nM to 2600 nM (1.9-fold).

First: COc1ccccc1CC(=O)N1C[C@H]2[C@@]3(c4ccccc4)CC[C@H](c4ccccc43)[C@@]2(C[n+]2ccccc2)C1 (relative stereo) [Example 18, N-[(3aRS, 4SR, 9SR, 9aRS)-4,9-ethano-2-(2-methoxyphenyl)acetyl-9-phenyl-2,3,3a,4,9,9a-hexahydro-1H-benzo[f]isoindolyl-3a-methyl]pyridinium trifluoromethanesulphonate]
Second: COc1ccccc1CC(=O)N1C[C@H]2[C@@]3(c4ccccc4)CC[C@H](c4ccccc43)[C@@]2(CC(=O)O)C1 (relative stereo) [Example 19, (3aRS, 4SR, 9SR, 9aRS)-4,9-ethano-2-(2-methoxyphenyl)acetyl-9-phenyl-2,3,3a,4,9,9a-hexahydro-1H-benzo[f]isoindol-3a-acetic acid]
The IC50 of the first is 1.8-fold higher: 10000 nM for the first, 5600 nM for the second. The second is the more potent here.

`COc1ccccc1CC(=O)N1C[C@H]2[C@@]3(c4ccccc4)CC[C@H](c4ccccc43)[C@@]2(CC(=O)NCC(=O)O)C1` (relative stereo) [Example 20, N-[(3aRS, 4SR, 9SR, 9aRS)-4,9-ethano-2-(2-methoxyphenyl)acetyl-9-phenyl-2,3,3a,4,9,9a-hexahydro-1H-benzo[f]isoindol-3a-yl]acetylglycine] and `COc1ccccc1CC(=O)N1C[C@H]2[C@@]3(c4ccccc4)CC[C@H](c4ccccc43)[C@@]2(CC(C(=O)O)C(=O)O)C1` (relative stereo) [Example 24, 2-{(3aRS, 4SR, 9SR, 9aRS)-4,9-ethano-[(2-methoxyphenyl)acetyl]-9-phenyl-1,2,3,3a,9,9a-hexahydro-1H-benzo[f]isoindole-3a-}-methylmalonic acid] are within 1.5-fold of each other in IC50: 4800 nM for the first, 4200 nM for the second.

`COc1ccccc1CC(=O)N1C[C@H]2[C@@]3(c4ccccc4)CC[C@H](c4ccccc43)[C@@]2(CP(=O)(O)O)C1` (relative stereo) [Example 23] and `COc1ccccc1CC(=O)N1C[C@H]2[C@@]3(c4ccccc4)CC[C@H](c4ccccc43)[C@@]2(CSCCC(=O)O)C1` (relative stereo) [Example 26, 3-[(3aRS, 4SR, 9SR, 9aRS)-4,9-ethano-2-(2-methoxyphenyl)acetyl-9-phenyl-2,3,3a,4,9,9a-hexahydro-1H-benzo[f]isoindol-3a-yl]methylthiopropanoic acid] are within 1.5-fold of each other in IC50: 2600 nM for the first, 2300 nM for the second.

`CC(=O)Oc1ccccc1CC(=O)N1C[C@H]2[C@@]3(c4ccccc4)CC[C@H](c4ccccc43)[C@@]2(C(=O)O)C1` (relative stereo) [Example 29, (3aRS, 4SR, 9SR, 9aRS)-4,9-ethano-2-(2-acetoxyphenyl)acetyl-9-phenyl-2,3,3a,4,9,9a-hexahydro-1H-benzo[f]isoindole-3a-carboxylic acid] and `CC(C)Oc1ccccc1CC(=O)N1C[C@@H]2[C@]3(c4ccccc4)CC[C@@H](c4ccccc43)[C@]2(C(=O)O)C1` (relative stereo) [Example 40, (3aRS,4SR,9SR,9aRS)-4,9-ethano-2-(2-isopropyl-oxyphenyl)acetyl-9-phenyl-2,3,3a,4,9,9a-hexahydro-1H-benzo[f]isoindole-3a-carboxylic acid] are within 1.5-fold of each other in IC50: 2300 nM for the first, 2950 nM for the second.

Compared with `O=C(Cc1ccccc1OCCCN1CCCC1)N1C[C@H]2[C@@]3(c4ccccc4)CC[C@H](c4ccccc43)[C@@]2(C(=O)O)C1` (relative stereo) [Example 32, hydrochloride of (3aRS, 4SR, 9SR, 9aRS)-4,9-ethano-2-[2-(3-pyrrolidinylpropyl)oxyphenyl]-acetyl-9-phenyl-2,3,3a,4,9,9a-hexahydro-1H-benzo[f]isoindole-3a-carboxylic acid], `COc1cccc(CC(=O)N2C[C@@H]3[C@]4(c5ccccc5)CC[C@@H](c5ccccc54)[C@]3(C(=O)O)C2)c1OC` (relative stereo) [Example 36, (3aRS, 4SR, 9SR, 9aRS)-4,9-ethano-2-(2,3-dimethoxyphenyl)acetyl-9-phenyl-2,3,3a,4,9,9a-hexahydro-1H-benzo[f]isoindole-3a-carboxylic acid] is 2.8-fold higher in IC50: 1330 nM for the first, 3700 nM for the second. The first is the more potent here.

For `O=C(Cc1c[nH]c2ccc(Br)cc12)N1C[C@@H]2[C@]3(c4ccccc4)CC[C@@H](c4ccccc43)[C@]2(C(=O)O)C1` (relative stereo) [Example 35, (3aRS, 4SR, 9SR, 9aRS)-4,9-ethano-2-(5-bromo-3-indolyl)acetyl-9-phenyl-2,3,3a,4,9,9a-hexahydro-1H-benzo [f]isoindole-3a-carboxylic acid], the IC50 was 2150 nM.
